The source of these data is publication PMC10855526 (2024).

What is called KD is the equilibrium constant for the complex coming apart.

Test [1] concerns A20:T20 duplex DNA (dA20:dT20) (DNA, duplex) AAAAAAAAAAAAAAAAAAAA/TTTTTTTTTTTTTTTTTTTT
In words: isothermal titration calorimetry. The following applies: 20 mM NaCl (30 mM Na+ in Table 1); 10 mM Na phosphate pH 7.5; 25 °C; 10 µM DNA; N constrained to 4; binding site size 5 bp. (In general: In ITC the heat of successive injections is recorded.)

For test [2] the test system is unchanged. Briefly: UV thermal melting at 260 nm. The following applies: 20 mM NaCl; 10 mM HEPES pH 7.5; 200 µM chloroquine; 4 µM duplex; fitted saturating ΔTm 16 ± 2 °C.
Test [3] shares this test system. In words: UV thermal melting, ΔTm binding isotherm fit. The following applies: 20 mM NaCl; 10 mM HEPES pH 7.5; 4 µM duplex; chloroquine diphosphate; from ΔTm vs concentration.

Regarding `CCN(CC)CCCC(C)Nc1ccnc2cc(Cl)ccc12` (stereo not drawn), the KD in test [1] came to 360 ± 20 µM; in test [3], 90 ± 10 µM. The Tm increase in test [2] was ~ 10 °C.
